Reference: PubChem BioAssay AID2060497 (Molecular Pharmacology Branch, DTP, NCI, 2025)

Test system: 317291-083-R-J1-PDC complex spheroids, viability
Assay: Anticancer human tumor 317291-083-R-J1-PDC patient-derived soft tissue sarcoma cell line growth inhibition [GQUAD]
Settings: for IC50: curve of first compound; for viability, T/C: stronger effect = lower value
From the text: DNA G-quadruplex Stabilizer Agents in Combinations in Complex Spheroids
A high-throughput screen of multi-cell type tumor spheroids was designed to identify active combinations of DNA G-quadruplex stabilizer agents and targeted small molecules. Complex spheroids include a stromal component modeled by human endothelial cells (HUVEC) and fibroblasts modeled by human mesenchymal stem cells (MSCs). The concentration ranges selected for each drug and investigational agent were based upon clinically achievable concentrations if the clinical Cmax of the agent was known.
Compounds. The drugs and investigational agents: pidnarulex (CX-5461; NSC782164), APTO-253 (NSC789042), BRACO-19 (NSC847499), peposertib (NSC802822), ceralasertib (NSC780249), elimusertib (NSC800525), camonsertib (NSC841442), AZD-1390 (NSC803789), olaparib (NSC753686), talazoparib (NSC767125), ART-558 (NSC835418), sotorasib (NSC818433), MRTX-1133 (NSC836407), SN-38 (NSC673596), topotecan (NSC609699), etoposide (NSC141540), doxorubicin (NSC123127), gemcitabine (NSC613327), 5-fluorouracil (NSC19893), paclitaxel (NSC125973), vemurafenib (NSC761431), panobinostat (NSC761190), R-306465 (JNJ-16241199; NSC773264), adavosertib (NSC754352), TP-3654 (NSC805149), carboplatin (NSC241240), KSQ-4279 (NSC840948), and staurosporine (NSC755774) were obtained from the National Cancer Institute (NCI) Developmental Therapeutics Program Chemical Repository (34). The FDA-approved anticancer drug set is available from the NCI Developmental Therapeutics Program. […] The stock solutions were prepared in dimethyl sulfoxide (DMSO, Sigma-Aldrich, St. Louis, MO, cat. D2650) at 800-fold the tested concentration and stored at -70 degrees C prior to their use. All drugs and investigational agents were tested over a range starting from a high concentration at or near the clinical Cmax and decreasing in half-log increments. If the clinical Cmax for an agent had not been determined, the highest concentration tested was 10 microM.
2.3 Cell Culture. All cells were maintained in an incubator at 37 degrees C and 5% CO2 with 95% humidity. The PDC lines were cultured according to standard operating procedures established by the NCI PDMR. All PDCs were thawed and cultured in Matrigel-coated flasks prepared with a working solution of 1X Ham's F-12 nutrient mix, without supplementation (Invitrogen, cat. 11765054), 100 U/mL penicillin-streptomycin (Invitrogen, cat. 15140122), and 2.5% Matrigel (Corning Inc., cat. 354248) for the first three passages. The 857933-349-R-J2-PDC line was cultured in 6C/Colon 1B media, which includes advanced DMEM/F-12 (Thermo Fisher Scientific, cat. 12634028), 10 mM HEPES (Thermo Fisher Scientific, cat. 15630080), 1X GlutaMAX supplement (Thermo Fisher Scientific, cat. 35050061), 0.1 mg/mL primocin (InvivoGen, cat. ant-pm-2), 10% defined fetal bovine serum, heat inactivated (HyClone Laboratories Inc., cat. SH30070.03HI), 50% L-WRN conditioned media (ATCC, cat. CRL-3276), 1.25 mM N-Acetyl-L-cysteine (Sigma-Aldrich, cat. A9165), 10 mM nicotinamide (Sigma-Aldrich, cat. N0636), 1X B-27 supplement (Thermo Fisher Scientific, cat. 17504044), 1X N-2 supplement (Thermo Fisher Scientific, cat. 17502048), 10 microM Y-27632 dihydrochloride (Tocris Bioscience, cat. 1254), and 50 ng/mL human EGF recombinant protein (Thermo Fisher Scientific, cat. PHG0311). The 485176-168-R4-J1-PDC line was cultured in Panc media, which includes all 6C/Colon 1B media components plus 100 ng/mL human FGF-10 (Thermo Fisher Scientific, cat. 100-26), 500 nM SB-431542 (Selleckchem, cat. S1067), and gastrin (Tocris, cat. 3006).
[…]

[1] = second compound 0.0316 µM, first compound 0.0316 µM
[2] = second compound 0.0316 µM, first compound 0.1 µM
[3] = second compound 0.0316 µM, first compound 0.316 µM
[4] = second compound 0.0316 µM, first compound 1 µM
[5] = second compound 0.0316 µM, first compound 3.16 µM
[6] = second compound 0.0316 µM, first compound 10 µM
[7] = second compound 0.1 µM, first compound 0.0316 µM
[8] = second compound 0.1 µM, first compound 0.1 µM
[9] = second compound 0.1 µM, first compound 0.316 µM
[10] = second compound 0.1 µM, first compound 1 µM
[11] = second compound 0.1 µM, first compound 3.16 µM
[12] = second compound 0.1 µM, first compound 10 µM
[13] = second compound 0.316 µM, first compound 0.0316 µM
[14] = second compound 0.316 µM, first compound 0.1 µM
[15] = second compound 0.316 µM, first compound 0.316 µM
[16] = second compound 0.316 µM, first compound 1 µM
[17] = second compound 0.316 µM, first compound 3.16 µM
[18] = second compound 0.316 µM, first compound 10 µM
[19] = second compound 1 µM, first compound 0.0316 µM
[20] = second compound 1 µM, first compound 0.1 µM
[21] = second compound 1 µM, first compound 0.316 µM
[22] = second compound 1 µM, first compound 1 µM
[23] = second compound 1 µM, first compound 3.16 µM
[24] = second compound 1 µM, first compound 10 µM
[25] = second compound 3.16 µM, first compound 0.0316 µM
[26] = second compound 3.16 µM, first compound 0.1 µM
[27] = second compound 3.16 µM, first compound 0.316 µM
[28] = second compound 3.16 µM, first compound 1 µM
[29] = second compound 3.16 µM, first compound 3.16 µM
[30] = second compound 3.16 µM, first compound 10 µM
[31] = second compound 10 µM, first compound 0.0316 µM
[32] = second compound 10 µM, first compound 0.1 µM
[33] = second compound 10 µM, first compound 0.316 µM
[34] = second compound 10 µM, first compound 1 µM
[35] = second compound 10 µM, first compound 3.16 µM
[36] = second compound 10 µM, first compound 10 µM
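Note: spheroids exposed to compounds for one week before readout.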
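Throughout, for viability, T/C: percent viability relative to DMSO vehicle wells taken as 100%.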

Structure (SMILES): C=CC(=O)N1CCN(c2nc(=O)n(-c3c(C)ccnc3C(C)C)c3nc(-c4c(O)cccc4F)c(F)cc23)C(C)C1 (centres undefined) + CN(C)c1ccc(Nc2c3ccc(NC(=O)CCN4CCCC4)cc3nc3cc(NC(=O)CCN4CCCC4)ccc23)cc1
- IC50 (second compound 0.0316 µM): > 10 µM
- IC50 (second compound 0.1 µM): > 10 µM
- IC50 (second compound 0.316 µM): > 10 µM
- IC50 (second compound 1 µM): 1.42 µM
- IC50 (second compound 3.16 µM): < 0.0316 µM
- IC50 (second compound 10 µM): < 0.0316 µM
- viability, T/C [1]: 105%
- viability, T/C [2]: 90.8%
- viability, T/C [3]: 114%
- viability, T/C [4]: 113%
- viability, T/C [5]: 98.4%
- viability, T/C [6]: 65.2%
- viability, T/C [7]: 115%
- viability, T/C [8]: 100%
- viability, T/C [9]: 99.1%
- viability, T/C [10]: 107%
- viability, T/C [11]: 91.8%
- viability, T/C [12]: 70.8%
- viability, T/C [13]: 81.5%
- viability, T/C [14]: 69.9%
- viability, T/C [15]: 73.2%
- viability, T/C [16]: 91.2%
- viability, T/C [17]: 82.9%
- viability, T/C [18]: 51.4%
- viability, T/C [19]: 57%
- viability, T/C [20]: 44.1%
- viability, T/C [21]: 52.3%
- viability, T/C [22]: 81.2%
- viability, T/C [23]: 30.2%
- viability, T/C [24]: 22.5%
- viability, T/C [25]: 32.1%
- viability, T/C [26]: 22%
- viability, T/C [27]: 29.2%
- viability, T/C [28]: 51.6%
- viability, T/C [29]: 42.4%
- viability, T/C [30]: 21.1%
- viability, T/C [31]: 13.5%
- viability, T/C [32]: 15.1%
- viability, T/C [33]: 8.38%
- viability, T/C [34]: 8.02%
- viability, T/C [35]: 6.86%
- viability, T/C [36]: 23.1%

Structure (SMILES): CC1COCCN1c1cc(-c2ccnn2C)c2ccnc(-c3ccn[nH]3)c2n1 (centres undefined) + CN(C)c1ccc(Nc2c3ccc(NC(=O)CCN4CCCC4)cc3nc3cc(NC(=O)CCN4CCCC4)ccc23)cc1
- IC50 (second compound 0.0316 µM): 0.0647 µM
- IC50 (second compound 0.1 µM): 0.0668 µM
- IC50 (second compound 0.316 µM): 0.0424 µM
- IC50 (second compound 1 µM): < 0.0316 µM
- IC50 (second compound 3.16 µM): < 0.0316 µM
- IC50 (second compound 10 µM): < 0.0316 µM
- viability, T/C [1]: 87.2%
- viability, T/C [2]: 27.4%
- viability, T/C [3]: 17%
- viability, T/C [4]: 13.8%
- viability, T/C [5]: 13.8%
- viability, T/C [6]: 14.2%
- viability, T/C [7]: 84.5%
- viability, T/C [8]: 31.4%
- viability, T/C [9]: 14.9%
- viability, T/C [10]: 13.7%
- viability, T/C [11]: 12.1%
- viability, T/C [12]: 14%
- viability, T/C [13]: 59.1%
- viability, T/C [14]: 24.3%
- viability, T/C [15]: 15.2%
- viability, T/C [16]: 11.2%
- viability, T/C [17]: 15.5%
- viability, T/C [18]: 19.9%
- viability, T/C [19]: 41.1%
- viability, T/C [20]: 17%
- viability, T/C [21]: 33.6%
- viability, T/C [22]: 10.3%
- viability, T/C [23]: 7.25%
- viability, T/C [24]: 6.88%
- viability, T/C [25]: 25.8%
- viability, T/C [26]: 7.15%
- viability, T/C [27]: 5.62%
- viability, T/C [28]: 4.31%
- viability, T/C [29]: 3.37%
- viability, T/C [30]: 2.05%
- viability, T/C [31]: 3.62%
- viability, T/C [32]: 5.3%
- viability, T/C [33]: 7.04%
- viability, T/C [34]: 4%
- viability, T/C [35]: 1.52%
- viability, T/C [36]: 0.66%
